In one assay the target is human TLR8 (Homo sapiens (Human), UniProt Q9NR97). Briefly: TLR8 inhibition reporter assay (HEK-Blue cells, SEAP reporter, R848 stimulation).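 Also: SEAP under an IFN-β minimal promoter carrying five NF-κB and AP-1 sites, 22 h at 37 °C, doses 0.05 nM–50 µM, inhibition scaled between agonist-plus-DMSO and reference-inhibitor wells.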 The following applies: read-out: TLR8 IC50, R848 15.9 μM. (In general: A reporter such as luciferase makes a cellular process visible.)
The next assay deals with human TLR7 (Homo sapiens (Human), UniProt Q9NYK1). In words: TLR7 inhibition reporter assay (HEK-Blue cells, SEAP reporter, gardiquimod stimulation). The following applies: gardiquimod 7.5 μM. It is filed as cell-based.
Sequence of human TLR7 (Q9NYK1 27-1049): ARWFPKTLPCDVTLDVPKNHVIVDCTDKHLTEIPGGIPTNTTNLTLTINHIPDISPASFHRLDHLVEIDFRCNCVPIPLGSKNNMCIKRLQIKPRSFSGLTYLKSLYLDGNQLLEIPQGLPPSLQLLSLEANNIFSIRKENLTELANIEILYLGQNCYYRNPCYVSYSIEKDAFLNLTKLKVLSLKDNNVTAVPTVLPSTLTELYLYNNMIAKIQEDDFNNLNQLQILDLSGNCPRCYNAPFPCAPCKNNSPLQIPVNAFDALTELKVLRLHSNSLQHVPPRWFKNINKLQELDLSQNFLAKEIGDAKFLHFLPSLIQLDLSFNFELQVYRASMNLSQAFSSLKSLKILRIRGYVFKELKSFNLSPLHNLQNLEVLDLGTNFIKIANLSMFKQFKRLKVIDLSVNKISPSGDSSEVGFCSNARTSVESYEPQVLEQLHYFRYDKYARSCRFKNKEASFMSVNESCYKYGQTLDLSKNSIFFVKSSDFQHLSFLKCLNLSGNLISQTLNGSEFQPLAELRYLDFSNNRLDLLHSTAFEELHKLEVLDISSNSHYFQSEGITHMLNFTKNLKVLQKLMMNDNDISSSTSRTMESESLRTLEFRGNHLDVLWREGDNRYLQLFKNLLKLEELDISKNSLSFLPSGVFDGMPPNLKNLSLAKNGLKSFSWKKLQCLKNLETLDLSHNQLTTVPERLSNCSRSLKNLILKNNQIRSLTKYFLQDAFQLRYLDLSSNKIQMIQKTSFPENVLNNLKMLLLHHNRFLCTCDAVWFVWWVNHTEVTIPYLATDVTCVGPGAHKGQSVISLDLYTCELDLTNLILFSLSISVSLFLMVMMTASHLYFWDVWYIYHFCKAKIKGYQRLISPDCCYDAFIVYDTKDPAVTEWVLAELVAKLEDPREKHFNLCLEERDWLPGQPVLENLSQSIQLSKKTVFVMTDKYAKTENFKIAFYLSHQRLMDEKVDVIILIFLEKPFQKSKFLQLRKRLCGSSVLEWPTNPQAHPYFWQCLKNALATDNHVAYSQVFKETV
For another assay, the target named is human TLR9 (Homo sapiens (Human), UniProt Q9NR96). Briefly: TLR9 inhibition reporter assay (HEK-Blue cells, SEAP reporter, ODN2006 stimulation).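 Also: SEAP driven by IFN-β minimal promoter with five NF-κB and AP-1 sites, compounds 0.05 nM–50 µM in DMSO, 22 h, inhibition scaled between agonist plus DMSO and reference inhibitor wells.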
Sequence of human TLR9 (Q9NR96 26-1032): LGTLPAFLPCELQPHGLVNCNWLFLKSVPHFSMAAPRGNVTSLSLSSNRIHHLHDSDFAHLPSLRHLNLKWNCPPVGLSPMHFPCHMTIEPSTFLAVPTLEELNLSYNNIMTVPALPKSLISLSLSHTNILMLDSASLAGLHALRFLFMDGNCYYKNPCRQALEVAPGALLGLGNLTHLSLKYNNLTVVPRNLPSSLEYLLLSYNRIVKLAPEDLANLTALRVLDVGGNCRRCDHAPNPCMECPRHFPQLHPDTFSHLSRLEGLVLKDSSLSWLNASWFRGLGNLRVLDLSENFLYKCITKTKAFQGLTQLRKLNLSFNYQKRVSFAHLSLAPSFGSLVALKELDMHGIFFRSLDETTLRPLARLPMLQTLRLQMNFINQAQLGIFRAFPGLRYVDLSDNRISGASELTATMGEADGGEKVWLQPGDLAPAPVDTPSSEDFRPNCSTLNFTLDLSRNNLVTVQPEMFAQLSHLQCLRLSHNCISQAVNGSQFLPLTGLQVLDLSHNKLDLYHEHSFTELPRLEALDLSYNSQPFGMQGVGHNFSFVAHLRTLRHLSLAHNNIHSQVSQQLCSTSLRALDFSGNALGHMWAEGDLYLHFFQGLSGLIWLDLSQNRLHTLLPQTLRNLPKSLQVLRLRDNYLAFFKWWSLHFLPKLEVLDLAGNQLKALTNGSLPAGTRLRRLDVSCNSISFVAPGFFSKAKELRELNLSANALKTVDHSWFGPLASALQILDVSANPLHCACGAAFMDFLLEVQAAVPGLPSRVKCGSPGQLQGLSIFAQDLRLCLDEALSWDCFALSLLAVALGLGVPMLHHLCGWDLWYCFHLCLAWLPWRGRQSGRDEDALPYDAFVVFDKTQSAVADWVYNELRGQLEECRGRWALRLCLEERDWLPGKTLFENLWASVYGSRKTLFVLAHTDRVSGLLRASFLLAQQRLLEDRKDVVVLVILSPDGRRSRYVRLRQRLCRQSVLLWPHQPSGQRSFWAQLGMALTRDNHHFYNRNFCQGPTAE
The mark [1] stands for this setting: HEK-Blue cells overexpressing human TLR8, SEAP reporter.
[2] abbreviates: HEK-Blue cells overexpressing human TLR7, SEAP reporter.
[3] abbreviates: read-out: TLR9 IC50, HEK-Blue cells overexpressing human TLR9, SEAP reporter, ODN2006 5 nM.
[4] abbreviates: read-out: TLR9 IC50, HEK-Blue cells, ODN2006 5 nM.

SMILES strings stand for the structures. Read-outs that look alike come from different tables or passages of the source.

Sequence of human TLR8 (Q9NR97 27-1041): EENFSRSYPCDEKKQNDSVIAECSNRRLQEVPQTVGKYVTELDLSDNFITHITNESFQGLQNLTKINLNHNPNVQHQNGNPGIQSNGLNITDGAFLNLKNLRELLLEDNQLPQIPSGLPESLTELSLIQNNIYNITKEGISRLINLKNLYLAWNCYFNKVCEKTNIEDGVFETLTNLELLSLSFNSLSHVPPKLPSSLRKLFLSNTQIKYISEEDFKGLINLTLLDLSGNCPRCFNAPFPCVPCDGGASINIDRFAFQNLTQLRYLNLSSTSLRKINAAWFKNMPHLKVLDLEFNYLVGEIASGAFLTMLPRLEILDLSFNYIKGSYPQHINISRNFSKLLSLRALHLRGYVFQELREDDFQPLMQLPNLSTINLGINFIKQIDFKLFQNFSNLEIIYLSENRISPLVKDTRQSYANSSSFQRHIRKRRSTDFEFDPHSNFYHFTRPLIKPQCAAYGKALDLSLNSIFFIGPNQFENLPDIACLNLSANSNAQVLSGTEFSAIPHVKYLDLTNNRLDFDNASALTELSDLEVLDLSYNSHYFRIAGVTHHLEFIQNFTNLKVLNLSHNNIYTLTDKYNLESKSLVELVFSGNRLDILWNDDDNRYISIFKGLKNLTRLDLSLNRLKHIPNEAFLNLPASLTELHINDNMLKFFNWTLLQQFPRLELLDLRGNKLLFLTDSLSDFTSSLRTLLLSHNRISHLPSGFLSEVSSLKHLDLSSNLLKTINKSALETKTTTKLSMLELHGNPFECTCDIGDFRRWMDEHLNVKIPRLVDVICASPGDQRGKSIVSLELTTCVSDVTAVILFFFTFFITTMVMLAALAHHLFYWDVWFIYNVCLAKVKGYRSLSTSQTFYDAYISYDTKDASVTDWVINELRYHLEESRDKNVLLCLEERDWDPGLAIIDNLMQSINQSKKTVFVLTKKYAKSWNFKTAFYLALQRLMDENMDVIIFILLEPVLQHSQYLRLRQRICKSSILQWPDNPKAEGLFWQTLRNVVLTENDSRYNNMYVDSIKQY
Description for human TLR7: (§1) HEK-Blue™-cells (Invivogen) overexpressing human TLR7, TLR8 or TLR9 receptors were used for screening inhibitors of these receptors using an inducible SEAP (secreted embryonic alkaline phosphatase) reporter gene under the control of the IFN-β minimal promoter fused to five NF-κB and AP-1-binding sites. Briefly, cells are seeded into Greiner 384 well plates (15000 cells per well for TLR7, 20,000 for TLR8 and 25,000 for TLR9) and then treated with test compounds in DMSO to yield a final dose response concentration range of 0.05 nM-50 μM. After a 30 minute compound pre-treatment at room temperature, the cells are then stimulated with a TLR7 ligand (gardiquimod at a final concentration of 7.5 μM), TLR8 ligand (R848 at a final concentration of 15.9 μM) or TLR9 ligand (ODN2006 at a final concentration of 5 nM) to activate NF-κB and AP-1 which induce the production of SEAP. After a 22 hour incubation at 37° C., 5% CO2, SEAP levels are determined with the addition of HEK-Blue™ Detection reagent (Invivogen), a cell culture medium that allows for detection of SEAP, according to manufacturer's specifications.
Description for human TLR8: as §1
Description for human TLR9: as §1

The IC50 is the concentration that gives 50% inhibition. With `Cc1c(-c2[nH]c3ccc(N4C[C@H]5C[C@@H]4CN5CCS(C)(=O)=O)nc3c2C(C)C)cn2ncnc2c1C` [Example 764], the IC50 on human TLR8 (setting [1]) is 2.8 nM; at human TLR7 (setting [2]), 1.9 nM; on human TLR9 (setting [3]) it was 14400 nM.

Consider `Cc1c(-c2[nH]c3ccc(C4CC5(C4)CN(C)C5)nc3c2C(C)C)cn2ncnc2c1C` [Example 1022], for which the figures for the IC50 on human TLR8 (HEK-Blue cells), against human TLR7 (HEK-Blue cells) and at human TLR9 (setting [4]) were 1.9 nM, 0.91 nM and 3650 nM, respectively.

As for `Cc1c(-c2[nH]c3ccc(N4C[C@@H]5C[C@H]4CN5C(C)C)nc3c2C(C)C)cn2ncnc2c1C` [Example 783], the results for the concentration for half-maximal inhibition (IC50) at human TLR8 (setting [1]), against human TLR7 (setting [2]) and on human TLR9 (setting [3]) were 3.9 nM, 1.8 nM and 8380 nM, respectively.

As to `Cc1c(-c2[nH]c3ccc(N4C[C@@H]5C[C@H]4CN5C4COC4)nc3c2C(C)C)cn2ncnc2c1C` [Example 779], the IC50 at human TLR8 (setting [1]) was determined as 11 nM; against human TLR7 (setting [2]), 7.3 nM; on human TLR9 (setting [3]) it was 34500 nM.

Turning to `Cc1c(-c2[nH]c3ccc(N4C[C@H]5C[C@@H]4CN5CC(N)=O)nc3c2C(C)C)cn2ncnc2c1C` [Example 762], the IC50 on human TLR8 (setting [1]) came out at 8.6 nM; at human TLR7 (setting [2]), 3.8 nM; at human TLR9 (setting [3]), 18300 nM.

With `Cc1c(-c2[nH]c3ccc(N4C[C@H]5C[C@@H]4CN5CCC(=O)N(C)C)nc3c2C(C)C)cn2ncnc2c1C` [Example 767], the IC50 on human TLR8 (setting [1]) was 2.9 nM; on human TLR7 (setting [2]), 5.4 nM; on human TLR9 (setting [3]) it was 8300 nM.

Consider `Cc1c(-c2[nH]c3ccc(N4CCC(N(C)Cc5ncccn5)CC4)nc3c2C(C)C)cn2cnnc2c1C` [Example 78], for which the IC50 at human TLR8 (setting [1]) is 10 nM; against human TLR7 (setting [2]), 3.7 nM; at human TLR9 (setting [3]), 3170 nM.

As to `CCN(CCS(C)(=O)=O)C1CCC(c2ccc3[nH]c(-c4cn5ncnc5c(C)c4C)c(C(C)C)c3n2)CC1` (centres unmarked) [Example 460], the figures for the IC50 at human TLR8 (setting [1]), at human TLR7 (setting [2]) and on human TLR9 (setting [3]) were 0.79 nM, 0.88 nM and 2060 nM, respectively.

For `Cc1c(-c2[nH]c3ccc(N4C[C@@H]5C[C@H]4CN5CCCS(C)(=O)=O)nc3c2C(C)C)cn2ncnc2c1C` [Example 778], the IC50 at human TLR8 (setting [1]) was determined as 2.3 nM; against human TLR7 (setting [2]), 2.7 nM; at human TLR9 (setting [3]), 7910 nM.

In the case of `Cc1c(-c2[nH]c3ccc(N4C[C@H]5C[C@@H]4CN5C(=O)CCN(C)C)nc3c2C(C)C)cn2ncnc2c1C` [Example 773], the IC50 was 4.6 nM at human TLR8 (setting [1]), 3 nM at human TLR7 (setting [2]) and 2710 nM on human TLR9 (setting [3]).

Consider `Cc1c(-c2[nH]c3ccc(C4CC5(C4)CN(C(C)C)C5)nc3c2C(C)C)cn2ncnc2c1C` [Example 1023], for which the IC50 came to 3.6 nM on human TLR8 (HEK-Blue cells), 10 nM at human TLR7 (HEK-Blue cells) and 6940 nM on human TLR9 (setting [4]).

On to `COc1cc(-c2[nH]c3ccc(CCC4CN(Cc5c[nH]nn5)C4)nc3c2C(C)C)cn2ncnc12` [Example 688], for which the half-maximal inhibitory concentration (IC50) at human TLR8 (setting [1]) was found to be 23 nM; against human TLR7 (setting [2]), 8.4 nM; at human TLR9 (setting [3]) it was 177 nM.

On to `Cc1c(-c2[nH]c3ccc(N4C[C@H]5C[C@@H]4CN5CCC(N)=O)nc3c2C(C)C)cn2ncnc2c1C` [Example 763], for which the 50% inhibitory concentration (IC50) on human TLR8 (setting [1]) was found to be 2.6 nM; against human TLR7 (setting [2]), 3.8 nM; on human TLR9 (setting [3]), 4580 nM.

Consider `CCCN(CCC)C1CCC(Oc2ccc3[nH]c(-c4cc(OC)c5ncnn5c4)c(C(C)C)c3n2)CC1` (centres unmarked) [Example 605, 4-((3-isopropyl-2-(8-methoxy-[1,2,4]triazolo[1,5-a]pyridin-6-yl)-1H-pyrrolo[3,2-b]pyridin-5-yl)oxy)-N,N-dipropylcyclohexan-1-amine], for which the IC50 on human TLR7 (setting [2]) stood at 13 nM; at human TLR9, 4240 nM.

For `Cc1c(-c2[nH]c3ccc(N4C[C@@H]5C[C@H]4CN5C4CCS(=O)(=O)CC4)nc3c2C(C)C)cn2ncnc2c1C` [Example 781], the IC50 stood at 18 nM at human TLR8 (setting [1]), 11 nM against human TLR7 (setting [2]) and 14400 nM on human TLR9 (setting [3]).

Regarding `Cc1c(-c2[nH]c3ccc(N4C[C@H]5C[C@@H]4CN5C4COC4)nc3c2C(C)C)cn2ncnc2c1C` [Example 768], the 50% inhibitory concentration (IC50) at human TLR8 (setting [1]) worked out at 9.6 nM; against human TLR7 (setting [2]), 6.4 nM; on human TLR9 (setting [3]), 21000 nM.

With `Cc1c(-c2[nH]c3ccc(N4C[C@@H]5C[C@H]4CN5CCC(=O)N(C)C)nc3c2C(C)C)cn2ncnc2c1C` [Example 776], the IC50 on human TLR8 (setting [1]) came out at 5.3 nM; against human TLR7 (setting [2]), 6 nM; on human TLR9 (setting [3]), 13100 nM.

In the case of `Cc1c(-c2[nH]c3ccc(N4C[C@@H]5C[C@H]4CN5CC(N)=O)nc3c2C(C)C)cn2ncnc2c1C` [Example 774], the IC50 at human TLR8 (setting [1]) came out at 5.7 nM; at human TLR7 (setting [2]), 3.7 nM; at human TLR9 (setting [3]), 18600 nM.

On to `Cc1c(-c2[nH]c3ccc(N4C[C@H]5CCC[C@@H](C4)N5C(=O)CN(C)C)nc3c2C(C)C)cn2ncnc2c1C` [Example 750], for which the IC50 stood at 3.7 nM on human TLR8 (setting [1]), 1.2 nM against human TLR7 (setting [2]) and 6140 nM at human TLR9 (setting [3]).

As to `Cc1c(-c2[nH]c3ccc(N4C[C@@H](C)N(CCCS(C)(=O)=O)C[C@@H]4C)nc3c2C(C)C)cn2ncnc2c1C` [Example 846], the IC50 on human TLR8 (HEK-Blue cells) was 1.2 nM; against human TLR7 (HEK-Blue cells), 0.55 nM; on human TLR9 (setting [4]), 22600 nM.

As for `Cc1c(-c2[nH]c3ccc(N4C[C@H]5C[C@@H]4CN5CC#N)nc3c2C(C)C)cn2ncnc2c1C` [Example 766], the IC50 worked out at 1.2 nM on human TLR8 (setting [1]), 0.86 nM on human TLR7 (setting [2]) and 3510 nM at human TLR9 (setting [3]).

On to `CC(C)c1c(-c2cn(CCS(C)(=O)=O)c3ncccc23)[nH]c2ccc(C3CCC(NC4CCOCC4)CC3)nc12` (centres unmarked) [Example 271], for which the IC50 at human TLR8 (setting [1]) was 40 nM; at human TLR7 (setting [2]) it was 120 nM; on human TLR9 (setting [3]), 228 nM.

Turning to `Cc1c(-c2[nH]c3ccc(N4C[C@@H]5C[C@H]4CN5C4CCOCC4)nc3c2C(C)C)cn2ncnc2c1C` [Example 780], the figures for the IC50 at human TLR8 (setting [1]), against human TLR7 (setting [2]) and at human TLR9 (setting [3]) were 5.4 nM, 1.9 nM and 5220 nM, respectively.

Take `Cc1c(-c2[nH]c3ccc(N4C[C@H]5C[C@@H]4CN5C(C)C)nc3c2C(C)C)cn2ncnc2c1C` [Example 786]: the figures for the IC50 on human TLR8 (setting [1]), against human TLR7 (setting [2]) and on human TLR9 (setting [3]) were 12 nM, 7.7 nM and 14700 nM, respectively.

With `Cc1c(-c2[nH]c3ccc(N4C[C@@H]5C[C@H]4CN5CCC(N)=O)nc3c2C(C)C)cn2ncnc2c1C` [Example 775], the IC50 amounted to 4.4 nM on human TLR8 (setting [1]), 3.8 nM on human TLR7 (setting [2]) and 8450 nM at human TLR9 (setting [3]).

For the compound `Cc1c(-c2[nH]c3ccc(N4C[C@H]5CCC[C@@H](C4)N5CCS(C)(=O)=O)nc3c2C(C)C)cn2ncnc2c1C` [Example 751], the IC50 at human TLR8 (setting [1]) came to 7.3 nM; on human TLR7 (setting [2]), 13 nM; on human TLR9 (setting [3]) it was 26000 nM.

`Cc1c(-c2[nH]c3ccc(N4C[C@@H]5C[C@H]4CN5C(=O)CCN(C)C)nc3c2C(C)C)cn2ncnc2c1C` [Example 785]: the figures for the IC50 on human TLR8 (setting [1]), against human TLR7 (setting [2]) and at human TLR9 (setting [3]) were 13 nM, 8 nM and 4680 nM, respectively.

In the case of `Cc1cc(-c2[nH]c3ccc(C4CCN(CC(N)=O)CC4)nc3c2C(C)C)cn2ncnc12` [Example 559], the IC50 was 4.6 nM on human TLR8 (setting [1]), 0.72 nM against human TLR7 (setting [2]) and 4920 nM on human TLR9 (setting [3]).

For the compound `Cc1c(-c2[nH]c3ccc(N4C[C@@H]5C[C@H]4CN5C(=O)CN(C)C)nc3c2C(C)C)cn2ncnc2c1C` [Example 784], the IC50 is 9.4 nM at human TLR8 (setting [1]), 2.9 nM on human TLR7 (setting [2]) and 4530 nM on human TLR9 (setting [3]).

In the case of `Cc1c(-c2[nH]c3ccc(N4[C@@H]5CC[C@H]4CN(CCC(N)=O)C5)nc3c2C(C)C)cn2ncnc2c1C` [Example 749], the IC50 at human TLR8 (setting [1]) came out at 2.6 nM; at human TLR7 (setting [2]) it was 2.9 nM; on human TLR9 (setting [3]) it was 14900 nM.

As for `Cc1c(-c2[nH]c3ccc(N4C[C@@H]5C[C@H]4CN5Cc4cn(C)nn4)nc3c2C(C)C)cn2ncnc2c1C` [Example 787], the half-inhibitory concentration (IC50) on human TLR8 (setting [1]) turned out to be 4.9 nM; at human TLR7 (setting [2]), 9.4 nM; at human TLR9 (setting [3]), 12300 nM.

For `Cc1c(-c2[nH]c3ccc(N4C[C@@H]5C[C@H]4CN5CCS(C)(=O)=O)nc3c2C(C)C)cn2ncnc2c1C` [Example 777], the IC50 was 7.4 nM on human TLR8 (setting [1]), 9.2 nM on human TLR7 (setting [2]) and 14800 nM on human TLR9 (setting [3]).

Regarding `CC(C)c1c(-c2cn(CC#N)c3ncccc23)[nH]c2ccc(C3CCC(NC4CCOCC4)CC3)nc12` (centres unmarked) [Example 274], the IC50 was 3.7 nM on human TLR8 (setting [1]), 8.5 nM against human TLR7 (setting [2]) and 474 nM at human TLR9 (setting [3]).

For `Cc1c(-c2[nH]c3ccc(N4C[C@H]5C[C@@H]4CN5CCCS(C)(=O)=O)nc3c2C(C)C)cn2ncnc2c1C` [Example 765], the IC50 on human TLR8 (setting [1]) was determined as 3.5 nM; at human TLR7 (setting [2]), 5.6 nM; on human TLR9 (setting [3]), 10300 nM.

With `Cc1c(-c2[nH]c3ccc(N4CCN(C(=O)CN(C)C)[C@H](C)C4)nc3c2C(C)C)cn2ncnc2c1C` [Example 849], the IC50 at human TLR8 (HEK-Blue cells) stood at 1.6 nM; against human TLR7 (HEK-Blue cells) it was 0.53 nM; on human TLR9 (setting [4]), 8120 nM.

Regarding `Cc1c(-c2[nH]c3ccc(N4C[C@H]5C[C@@H]4CN5C4CCS(=O)(=O)CC4)nc3c2C(C)C)cn2ncnc2c1C` [Example 770], the results for the IC50 on human TLR8 (setting [1]), against human TLR7 (setting [2]) and on human TLR9 (setting [3]) were 24 nM, 11 nM and 18200 nM, respectively.
